# Assay results as given in paper PMC8948292, “Combining PEGylated mito-atovaquone with MCT and Krebs cycle redox inhibitors as a potential strategy to abrogate tumor cell proliferation” (Scientific Reports, 2022).
# pIC50: −log10 of the molar value. Read-outs that look alike come from different tables or passages of the source.
# Tests used:
# MiaPaCa-2 cells [1] = assay: Cell proliferation (cell confluence), IncuCyte Live-Cell Analysis System; type: cell-based, human; details: for pIC50: Homo sapiens; for Inhibition of cell proliferation in combination with Mito-PEG5-ATO (combination index): combined with Mito-PEG5-ATO; for % changes of IC50 with vs without Mito-PEG5-ATO: heat map Fig. 7d
# Method: The following cell lines were obtained from the American Type Culture Collection (Manassas, VA), where they were regularly authenticated: MiaPaCa-2 (ATCC Cat# CRL-1420, human pancreatic cancer cells), U87MG (ATCC Cat# HTB-14, human brain cancer cells), A549 (ATCC Cat# CCL-185, lung cancer cells), and HCT-116 (ATCC Cat# CCL-247, colon cancer cells). All cell lines were grown at 37 °C in 5% carbon dioxide. MiaPaCa-2 cells were maintained in Dulbecco's Modified Eagle Medium (Thermo Fisher Scientific, Waltham, MA; Cat# 11965) supplemented with 10% fetal bovine serum. U87MG, A549, and HCT-116 cells were maintained in RPMI 1640 medium (Thermo Fisher Scientific, Cat# 11875), supplemented with 10% fetal bovine serum. All cells were stored in liquid nitrogen and used within 20 passages after thawing.
# The IncuCyte Live-Cell Analysis System was used to monitor cell proliferation[3],[33],[67]. As shown in previous publications[3],[67], this imaging system is probe-free and noninvasive, and enables continuous monitoring of cell confluence over several days. The increase in the percentage of cell confluence was used as a surrogate marker of cell proliferation. In a 96-well plate, cells were plated at 1,000 cells per well in triplicates and left to adhere overnight. Cells were then treated with Mito-PEG-ATO analogs, and the cell confluency was recorded over several days in the IncuCyte Live-Cell Analysis System.
# MiaPaCa-2 cells [2] = assay: Intracellular oxidants: HPLC of hydroethidine (HE) oxidation products; type: cell-based, human; details: 24 h, with Mito-PEG5-ATO 0.05 µM, AZD-3965 200 µM or CPI-613 200 µM
# Method: Hydroethidine (HE) or dihydroethidium was used as a fluorogenic probe to assess the cellular generation of superoxide and other peroxidatic oxidants[36],[37]. Cells were treated for 24 h with Mito-PEG5-ATO alone or in combination with AZD-3965 or CPI-613, followed by 1 h incubation with HE (10 µM). Cells were harvested and the cell pellet stored at − 80 °C until the day of high-performance liquid chromatography (HPLC) analysis. Sample preparation and HPLC analysis were performed as previously reported[32],[36]. 2-OH-E^+ was used as a specific marker for superoxide, and E^+-E^+ was used as a specific marker for intracellular one-electron oxidants[36],[37].
# HE was purchased from Invitrogen (Carlsbad, CA). Stock solutions (20 mM and 5 mM, respectively) were prepared in deoxygenated DMSO (dimethyl sulfoxide) and stored at − 80 °C until use. Ethidium cation (bromide salt) was purchased from Sigma-Aldrich. The hydroxylated oxidation products from HE (2-OH-E^+) were prepared by reacting the probes with Fremy’s salt as previously described in detail[70],[71]. The dimeric products were prepared by reacting the probes with excess potassium ferricyanide, as detailed elsewhere. Synthesized standards of all oxidation products of HE were purified by HPLC. HPLC-based measurements of HE and its oxidation products were performed using an Agilent 1100 system equipped with absorption and fluorescence detectors and refrigerated autosampler (4 °C). The samples (50 µL) were injected into a reverse phase column (Phenomenex, Kinetex C18, 100 mm × 4.6 mm, 2.6 µm) equilibrated with 20% acetonitrile and 80% water containing 0.1% trifluoroacetic acid. The compounds were eluted by increasing the content of acetonitrile from 20 to 56% over 4.5 min at a flow rate of 1.5 mL/min. The absorption detector was used to measure 3,8-diamino-6-phenylphenanthridine (at 290 nm; retention time: 2.5 min), HE-E^+ (at 290 nm; retention time: 4.1 min), E^+-E^+ (at 290 nm; retention time: 4.3 min), and HE (at 370 nm; retention time: 1.6 min). A fluorescence detector (initial excitation at 358 nm and emission at 440 nm) was used to monitor HE (when present at low concentrations). At 2.3 min after injection, the fluorescence parameters were changed (excitation at 490 nm and emission at 567 nm) for sensitive detection of 2-OH-E^+ (retention time: 3.2 min) and E^+ (retention time: 3.3 min).
# [3] = test system: mitochondrial respiration (OCR) in intact MiaPaCa-2 cells; assay: Intact cell mitochondrial respiration (basal OCR), Seahorse XF-96; type: cell-based, human
# Method: (§1) Mitochondrial oxygen consumption was measured using the Seahorse XF-96 Extracellular Flux Analyzer (Agilent, North Billerica, MA)[3],[33],[67],[68]. To determine the intact cell mitochondrial function of MiaPaCa-2 cells in response to Mito-PEG-ATO analogs, we used the bioenergetic function assay previously described[2],[3]. […] From these measurements, indices of mitochondrial function were determined as previously described[2],[3]. For mitochondrial complex activities assays, after cells were treated with Mito-PEG-ATO analogs for 24 h, the OCR-based assessment of mitochondrial complex activities was carried out on acutely permeabilized cells in the presence of different mitochondrial substrates, i.e., pyruvate/malate for complex I and duroquinol for complex III[3],[32],[34],[69]. Rotenone, malonate, and antimycin A (Sigma-Aldrich, St. Louis, MO) were used as specific inhibitors of mitochondrial complexes I, II, and III, respectively. Briefly, cells that were intact after treatments were immediately permeabilized using the Seahorse XF Plasma Membrane Permeabilizer (Agilent). The mitochondrial complex I-induced OCR was assayed in mannitol and sucrose buffer[69] containing 10 mM pyruvate and 1.5 mM malate (substrates for complex I) and 10 mM malonate (which inhibits complex II activities). The mitochondrial complex III-driven OCR was assayed in a mannitol and sucrose buffer containing 0.5 mM duroquinol (substrate for complex III) as well as 1 µM rotenone and 10 mM malonate (which inhibit both complex I and II activities). The IC50 values were determined as previously reported.
# [4] = target: mitochondrial complex III (MiaPaCa-2 cells) (Homo sapiens, UniProt P00156); assay: Complex III-dependent oxygen consumption in permeabilized cells, Seahorse XF-96; type: cell-based
# Method: as §1
# MiaPaCa-2 cells [5] = assay: Intracellular ATP, luciferase-based assay; type: cell-based, human; details: Mito-PEG5-ATO 0 µM, 24 h
# Method: After seeding cells overnight at 2 × 10^4 per well in 96-well plates, cells were treated for 24 h. Intracellular ATP levels were determined in cell lysates using a luciferase-based assay per the manufacturer’s instructions (cat# FLAA, Sigma Aldrich, St. Louis, MO). In brief, the assay starts by rapidly adding an ATP assay mix solution (luciferase and luciferin solution, cat# FLAAM) to cell lysates. This is swirled briskly to mix, and the amount of light produced is immediately measured with a luminometer. The results were normalized to the total protein level measured in each well, as determined by the Bradford method (Bio-Rad Laboratories, Hercules, CA).
# [6] = MIA PaCa-2, MiaPaCa-2 cells, inhibitor alone, control ~90% confluence, read-out: IC50 (cell proliferation) without Mito-PEG5-ATO
# Sequence of mitochondrial complex III (MiaPaCa-2 cells) (P00156 whole entry): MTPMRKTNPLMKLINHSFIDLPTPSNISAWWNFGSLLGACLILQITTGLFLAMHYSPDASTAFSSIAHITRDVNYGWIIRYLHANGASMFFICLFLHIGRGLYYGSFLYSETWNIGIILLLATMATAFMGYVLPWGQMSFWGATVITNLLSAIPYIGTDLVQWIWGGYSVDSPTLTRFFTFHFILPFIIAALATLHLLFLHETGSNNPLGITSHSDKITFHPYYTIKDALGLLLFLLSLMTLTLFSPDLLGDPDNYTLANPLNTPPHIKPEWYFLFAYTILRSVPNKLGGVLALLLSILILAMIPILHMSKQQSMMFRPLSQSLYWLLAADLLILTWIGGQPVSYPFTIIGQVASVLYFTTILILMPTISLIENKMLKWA
# Sequence of mitochondrial complex III (MiaPaCa-2 cells) (P47985 whole entry partner): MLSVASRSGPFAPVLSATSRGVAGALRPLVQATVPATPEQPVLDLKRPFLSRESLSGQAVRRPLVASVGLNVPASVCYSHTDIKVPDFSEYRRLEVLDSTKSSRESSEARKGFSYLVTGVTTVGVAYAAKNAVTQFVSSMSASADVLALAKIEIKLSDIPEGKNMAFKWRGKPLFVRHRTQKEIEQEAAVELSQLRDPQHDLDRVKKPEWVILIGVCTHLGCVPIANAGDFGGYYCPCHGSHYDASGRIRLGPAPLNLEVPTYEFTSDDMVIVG
smiles,measurement,setting,value
"O=C(O)CCCCC(CCSCc1ccccc1)SCc1ccccc1 (stereo not shown) [CPI-613, reference compound]",pIC50,MiaPaCa-2 cells [1]; [6],3.71
same,"Inhibition of cell proliferation, alone","MiaPaCa-2 cells [1]; MiaPaCa-2 cells, 200 µM",only moderately inhibited cell proliferation
same,Inhibition of cell proliferation in combination with Mito-PEG5-ATO (combination index),MiaPaCa-2 cells [1]; MiaPaCa-2 cells,synergistically inhibited cell proliferation
same,% changes of IC50 with vs without Mito-PEG5-ATO,MiaPaCa-2 cells [1]; MiaPaCa-2 cells,38.6%
same,"Intracellular oxidant-induced HE-derived products, in combination with Mito-PEG5-ATO",MiaPaCa-2 cells [2],modest and additive increase
"O=C1C(OCCOCCOCCOCCOCCOCCOCCOCCOCC[P+](c2ccccc2)(c2ccccc2)c2ccccc2)=C([C@H]2CC[C@H](c3ccc(Cl)cc3)CC2)C(=O)c2ccccc21.[Br-] [Mito-PEG9-ATO, (26-((3-(trans-4-(4-chlorophenyl)cyclohexyl)-1,4-dioxo-1,4-dihydronaphthalen-2-yl)oxy)-3,6,9,12,15,18,21,24-octaoxahexacosyl)triphenylphosphonium bromide]",pIC50,"MiaPaCa-2 cells [1]; MIA PaCa-2, read-out: IC50, inhibition of cell proliferation",6.80
same,Cell confluence (% of control),"MiaPaCa-2 cells [1]; MiaPaCa-2 cells, 0.01 µM, control ~90% confluence",99.63 % of control
same,Cell confluence (% of control),"MiaPaCa-2 cells [1]; MiaPaCa-2 cells, 0.03 µM, control ~90% confluence",99.03 % of control
same,Cell confluence (% of control),"MiaPaCa-2 cells [1]; MiaPaCa-2 cells, 0.1 µM, control ~90% confluence",81.02 % of control
same,Cell confluence (% of control),"MiaPaCa-2 cells [1]; MiaPaCa-2 cells, 0.15 µM, control ~90% confluence",60.68 % of control
same,Cell confluence (% of control),"MiaPaCa-2 cells [1]; MiaPaCa-2 cells, 0.2 µM, control ~90% confluence",25.97 % of control
same,Cell confluence (% of control),"MiaPaCa-2 cells [1]; MiaPaCa-2 cells, 0.25 µM, control ~90% confluence",14.32 % of control
same,Cell confluence (% of control),"MiaPaCa-2 cells [1]; MiaPaCa-2 cells, 0.3 µM, control ~90% confluence",10.81 % of control
same,Cell confluence (% of control),"MiaPaCa-2 cells [1]; MiaPaCa-2 cells, 0.4 µM, control ~90% confluence",7.81 % of control
same,Cell confluence (% of control),"MiaPaCa-2 cells [1]; MiaPaCa-2 cells, 0.5 µM, control ~90% confluence",5.89 % of control
same,Cell confluence (% of control),"MiaPaCa-2 cells [1]; MiaPaCa-2 cells, 1 µM, control ~90% confluence",4.84 % of control
same,Cell confluence (% of control),"MiaPaCa-2 cells [1]; MiaPaCa-2 cells, 5 µM, control ~90% confluence",3.30 % of control
same,OCR (pmol/min/µg protein),"[3]; 0.01 µM, 24 h treatment, intact MiaPaCa-2 cells, baseline OCR, mean, n=4",13.41 pmol/min/µg protein
same,"OCR (basal, intact cell mitochondrial respiration)","[3]; 0.03 µM, 24 h treatment, intact MiaPaCa-2 cells, mean, n=4",12.24 pmol/min/µg protein
same,"OCR (basal, intact cell mitochondrial respiration)","[3]; 0.1 µM, 24 h treatment, intact MiaPaCa-2 cells, mean, n=4",7.60 pmol/min/µg protein
same,"OCR (basal, intact cell mitochondrial respiration)","[3]; 0.2 µM, 24 h treatment, intact MiaPaCa-2 cells, mean, n=4",3.64 pmol/min/µg protein
same,"OCR (basal, intact cell mitochondrial respiration)","[3]; 0.3 µM, 24 h treatment, intact MiaPaCa-2 cells, mean, n=4",1.87 pmol/min/µg protein
same,"OCR (basal, intact cell mitochondrial respiration)","[3]; 0.4 µM, 24 h treatment, intact MiaPaCa-2 cells, mean, n=4",1.43 pmol/min/µg protein
same,"OCR (basal, intact cell mitochondrial respiration)","[3]; 0.5 µM, 24 h treatment, intact MiaPaCa-2 cells, mean, n=4",1.22 pmol/min/µg protein
same,"OCR (basal, intact cell mitochondrial respiration)","[3]; 1 µM, 24 h treatment, intact MiaPaCa-2 cells, mean, n=4",1.18 pmol/min/µg protein
same,"OCR (basal, intact cell mitochondrial respiration)","[3]; 3 µM, 24 h treatment, intact MiaPaCa-2 cells, mean, n=4",0.96 pmol/min/µg protein
same,"OCR (basal, intact cell mitochondrial respiration)","[3]; 5 µM, 24 h treatment, intact MiaPaCa-2 cells, mean, n=4",0.01 pmol/min/µg protein
same,pIC50,"[3]; Homo sapiens, MIA PaCa-2, 24 h, read-out: IC50, inhibition of basal OCR in intact cells",6.96
same,"Complex III activity (OCR, % of control)",[4]; 0.003 µM,101.6 % of control
same,"Complex III activity (OCR, % of control)",[4]; 0.01 µM,95.6 % of control
same,"Complex III activity (OCR, % of control)",[4]; 0.03 µM,96.5 % of control
same,"Complex III activity (OCR, % of control)",[4]; 0.05 µM,100.1 % of control
same,"Complex III activity (OCR, % of control)",[4]; 0.1 µM,95.3 % of control
same,"Complex III activity (OCR, % of control)",[4]; 0.2 µM,93.6 % of control
same,"Complex III activity (OCR, % of control)",[4]; 0.3 µM,92.1 % of control
same,"Complex III activity (OCR, % of control)",[4]; 0.4 µM,72.1 % of control
same,"Complex III activity (OCR, % of control)",[4]; 0.5 µM,48.1 % of control
same,"Complex III activity (OCR, % of control)",[4]; 0.75 µM,16.6 % of control
same,"Complex III activity (OCR, % of control)",[4]; 1 µM,4.7 % of control
same,pIC50,"[4]; MiaPaCa-2 cells, 24 h treatment, antimycin A-inhibitable OCR, read-out: IC50, complex III-induced oxygen consumption (Complex III activity)",6.30
CCOC(=O)Oc1c(OC)cc(C(=O)O[C@@H]2C[C@@H]3CN4CCc5c([nH]c6cc(OC)ccc56)[C@H]4C[C@@H]3[C@H](C(=O)OC)[C@H]2OC)cc1OC [syrosingopine],pIC50,MiaPaCa-2 cells [1]; [6],5.10
same,Inhibition of cell proliferation in combination with Mito-PEG5-ATO (combination index),MiaPaCa-2 cells [1]; MiaPaCa-2 cells,Synergistic inhibition
same,% changes of IC50 with vs without Mito-PEG5-ATO,MiaPaCa-2 cells [1]; MiaPaCa-2 cells,53.8%
same,intracellular ATP level,MiaPaCa-2 cells [5]; syrosingopine 1 µM,29.40 nmol ATP/mg protein
same,intracellular ATP level,MiaPaCa-2 cells [5]; syrosingopine 3 µM,30.31 nmol ATP/mg protein
same,intracellular ATP level,MiaPaCa-2 cells [5]; syrosingopine 4 µM,29.92 nmol ATP/mg protein
same,intracellular ATP level,MiaPaCa-2 cells [5]; syrosingopine 5 µM,30.42 nmol ATP/mg protein
same,intracellular ATP level,MiaPaCa-2 cells [5]; syrosingopine 6 µM,30.16 nmol ATP/mg protein
same,intracellular ATP level,MiaPaCa-2 cells [5]; syrosingopine 7 µM,31.07 nmol ATP/mg protein
same,intracellular ATP level,MiaPaCa-2 cells [5]; syrosingopine 8 µM,31.92 nmol ATP/mg protein
same,intracellular ATP level,MiaPaCa-2 cells [5]; syrosingopine 9 µM,32.59 nmol ATP/mg protein
same,intracellular ATP level,MiaPaCa-2 cells [5]; syrosingopine 10 µM,32.30 nmol ATP/mg protein
same,intracellular ATP level,MiaPaCa-2 cells [5]; syrosingopine 15 µM,33.63 nmol ATP/mg protein
same,intracellular ATP level,MiaPaCa-2 cells [5]; syrosingopine 20 µM,30.18 nmol ATP/mg protein
same,"Intracellular oxidant-induced HE-derived products, in combination with Mito-PEG5-ATO",MiaPaCa-2 cells [2],modest and additive increase
